The values below come from US20200223837A1, “BENZOFURAN AMIDES AND HETEROAROMATIC ANALOGUES THEREOF FOR USE IN THERAPY” (European Molecular Biology Laboratory, priority 2017, published 2020).

This assay concerns EGR1 promoter. The assay is described as follows: EGR1 reporter assay (luciferase) in genomically engineered HeLa cell line. Particulars: Homo sapiens; EGR1 reporter HeLa cells, luciferase activity after 24 hours with compound. Type of assay: cell-based. The source says: The compounds of the present invention can be characterized for their effect on expression of egr1 (early growth response protein 1) using an EGR1 reporter cell line.
The HeLa cell line was genetically modified to provide a simple, robust and highly reproducible cell-based assay reporting the activity of an endogenous EGR1 promoter. In brief, a construct encoding EGFP and luciferase proteins, separated by a self-cleaving P2A peptide was inserted, using CRISPR, immediately downstream (3′) to the promoter of endogenous EGR1. Upon treatment with compounds, cells express EGFP and luciferase from EGR1 promoter, which can be readily detected either in live cells using microscopy or cytometry, or through detection of luciferase activity in cell lysates.
To achieve stable genomic integration of an EGR1-promoter dual reporter, two plasmids were generated: one contained the reporter construct (eGFP-P2A-luciferase) flanked by homology arms that direct insertion into genomic DNA, by homologous recombination, of a break in genomic DNA generated by guide RNA targeted cleavage by Cas9 endonuclease. The gRNA expressing plasmid was based on px330 (56), into which a gRNA sequence that targets a break in gDNA close to the start codon of EGR1 was cloned. The left homology arm (encoding part of EGR1 promoter adjacent to its start codon) and right homology arm (encoding […] of start codon of EGR1) were cloned from gDNA using the following primers: […]
The present compounds can be tested, e.g. by using a HeLa cell line carrying an EGR1 reporter construct which allows for expression of luciferase and eGFP (enhanced GFP) controlled by the EGR1 promoter. For this reporter cells are seeded in the wells of a 384 well microtiter plate at a density of 2000 cells per well in 48 μl of DMEM supplemented with 4.5 g/l glucose, 2 mM glutamine and 10% FCS and are incubated for 24 hours at 37° C. with 5% CO2 and 95% humidity. Then, an eleven point 1:3 serial dilution of each test compound, from an initial concentration of 100 μM, is prepared in DMSO and the dilutions are added to the cells in a volume of 2 μl per well. The cells are incubated for a further 24 hours, after which the luciferase activity of each well is determined by addition of 25 μl of luciferase substrate reaction mixture (Britelite™ plus, Perkin Elmer) and measuring the bioluminescence light output (EnVision Xcite plate reader, PerkinElmer).
The compound of example 64 served as a positive control for this EGR1 reporter assay. The compound of example 64 had been identified in an initial high throughput screening campaign.
Background: A reporter such as luciferase makes a cellular process visible.

Regarding `NC(=O)c1cnc(NC(=O)Cc2coc3cc4c(cc23)CCC4)s1` [Example 18, 2-[[2-(6,7-Dihydro-5H-cyclopenta[f]benzofuran-3-yl)acetyl]amino]thiazole-5-carboxamide], the EC50 is 10 to 100 µM.

For `CC(=O)NCc1ccc(-c2csc(NC(=O)Cc3coc4cc5c(cc34)CCC5)n2)o1` [Example 19, N-[4-[5-(Acetamidomethyl)-2-furyl]thiazol-2-yl]-2-(6,7-dihydro-5H-cyclopenta[f]benzofuran-3-yl)acetamide], the EC50 lay in the range of 10 to 100 µM.

For the compound `CCc1ccc2c(CC(=O)Nc3nccs3)coc2c1` [Example 20, 2-(6-Ethylbenzofuran-3-yl)-N-thiazol-2-yl-acetamide], the EC50 was 10 to 100 µM.

On to `Cc1ccc2c(CC(=O)Nc3nc(-c4ccccn4)cs3)coc2c1` [Example 21, 2-(6-Methylbenzofuran-3-yl)-N-[4-(2-pyridyl)thiazol-2-yl]acetamide], for which the EC50 fell in the range of 10 to 100 µM.

Consider `Cc1cnc(NC(=O)Cc2coc3c(C)c(C)ccc23)[nH]1` [Example 22, 2-(6,7-Dimethylbenzofuran-3-yl)-N-(5-methyl-1H-imidazol-2-yl)acetamide], for which the EC50 is 10 to 100 µM.

For the compound `Cc1c[nH]c(NC(=O)Cc2coc3cc4c(cc23)CCC4)n1` [Example 23, 2-(6,7-dihydro-5H-cyclopenta[f]benzofuran-3-yl)-N-(5-methyl-1H-imidazol-2-yl)acetamide], the concentration for a half-maximal effect (EC50) lay in the range of 0.01 to 10 µM.

As for `CC(=O)c1csc(NC(=O)Cc2coc3cc(C)ccc23)n1` [Example 24, N-(4-Acetylthiazol-2-yl)-2-(6-methylbenzofuran-3-yl)acetamide], the EC50 is 0.01 to 10 µM.

On to `COc1ccc2c(CC(=O)Nc3nc(-c4ccncc4)cs3)coc2c1` [Example 25, 2-(6-Methoxybenzofuran-3-yl)-N-[4-(4-pyridyl)thiazol-2-yl]acetamide], for which the EC50 was 0.01 to 10 µM.

Take `COc1ccc2c(CC(=O)Nc3nc(-c4ccccn4)cs3)coc2c1` [Example 26, 2-(6-Methoxybenzofuran-3-yl)-N-[4-(2-pyridyl)thiazol-2-yl]acetamide]: the EC50 was in the range of 0.01 to 10 µM.

For `Cc1ccc2c(CC(=O)Nc3nc(-c4cccs4)cs3)coc2c1` [Example 27, 2-(6-Methylbenzofuran-3-yl)-N-[4-(2-thienyl)thiazol-2-yl]acetamide], the EC50 was 0.01 to 10 µM.

Regarding `CC(=O)NCCc1ccc(-c2csc(NC(=O)Cc3coc4cc(C)ccc34)n2)s1` [Example 28, N-[4-[5-(2-Acetamidoethyl)-2-thienyl]thiazol-2-yl]-2-(6-methylbenzofuran-3-yl)acetamide], the concentration giving a half-maximal response (EC50) was 0.01 to 10 µM.

Regarding `COc1ccc2c(CC(=O)Nc3nc(-c4ccc5c(c4)CCC(=O)N5)cs3)coc2c1` [Example 29, 2-(6-Methoxybenzofuran-3-yl)-N-[4-(2-oxo-3,4-dihydro-1H-quinolin-6-yl)thiazol-2-yl]acetamide], the EC50 is 0.01 to 10 µM.

In the case of `CCc1ccc2c(CC(=O)Nc3nc(-c4ccc(CNC(C)=O)cc4)cs3)coc2c1` [Example 30, N-[4-[4-(Acetamidomethyl)phenyl]thiazol-2-yl]-2-(6-ethylbenzofuran-3-yl)acetamide], the EC50 fell in the range of 0.01 to 10 µM.

As to `Cc1ccc2c(CC(=O)Nc3nc(-c4ccncc4)cs3)coc2c1` [Example 31, 2-(6-Methylbenzofuran-3-yl)-N-[4-(4-pyridyl)thiazol-2-yl]acetamide], the half-maximal effective concentration (EC50) was in the range of 0.01 to 10 µM.

For `COc1ccc2nc(NC(=O)Cc3coc4cc5c(cc34)CCC5)sc2c1` [Example 32, 2-(6,7-Dihydro-5H-cyclopenta[f]benzofuran-3-yl)-N-(6-methoxy-1,3-benzothiazol-2-yl)acetamide], the EC50 was 0.01 to 10 µM.

Consider `Cc1ccc2c(CC(=O)Nc3nc(C)cs3)coc2c1` [Example 33, 2-(6-Methylbenzofuran-3-yl)-N-(4-methylthiazol-2-yl)acetamide], for which the concentration giving a half-maximal response (EC50) was 0.01 to 10 µM.

For `Cc1cnc(NC(=O)Cc2coc3cc4c(cc23)OCO4)s1` [Example 34, 2-Furo[3,2-f][1,3]benzodioxol-7-yl-N-(5-methylthiazol-2-yl)acetamide], the EC50 was 0.01 to 10 µM.

As for `CCc1ccc2c(CC(=O)Nc3nc(C)cs3)coc2c1` [Example 35, 2-(6-Ethylbenzofuran-3-yl)-N-(4-methylthiazol-2-yl)acetamide], the EC50 was in the range of 0.01 to 10 µM.

On to `Cc1ccc2c(CC(=O)Nc3nc(-c4ccc(C)o4)cs3)coc2c1` [Example 36, 2-(6-Methylbenzofuran-3-yl)-N-[4-(5-methyl-2-furyl)thiazol-2-yl]acetamide], for which the half-maximal effective concentration (EC50) is 0.01 to 10 µM.

With `COc1ccc2c(CC(=O)Nc3nc(-c4cccs4)cs3)coc2c1` [Example 37, 2-(6-Methoxybenzofuran-3-yl)-N-[4-(2-thienyl)thiazol-2-yl]acetamide], the EC50 lay in the range of 0.01 to 10 µM.

Take `O=C(Cc1coc2cc(Cl)ccc12)Nc1ncc(C(F)(F)F)[nH]1` [Example 38, 2-(6-Chlorobenzofuran-3-yl)-N-[5-(trifluoromethyl)-1H-imidazol-2-yl]acetamide]: the concentration giving a half-maximal response (EC50) lay in the range of 0.01 to 10 µM.

On to `O=C(Cc1coc2c(F)c(F)ccc12)Nc1ncc(C(F)(F)F)s1` [Example 39, 2-(6,7-Difluorobenzofuran-3-yl)-N-[5-(trifluoromethyl)thiazol-2-yl]acetamide], for which the EC50 was in the range of 0.01 to 10 µM.

Turning to `CCc1ccc2c(CC(=O)Nc3ncc(C)s3)coc2c1` [Example 40, 2-(6-Ethylbenzofuran-3-yl)-N-(5-methylthiazol-2-yl)acetamide], the EC50 fell in the range of 0.01 to 10 µM.

Turning to `COc1ccc2nc(NC(=O)Cc3coc4cc(C)ccc34)sc2c1` [Example 41, N-(6-Methoxy-1,3-benzothiazol-2-yl)-2-(6-methylbenzofuran-3-yl)acetamide], the concentration giving a half-maximal response (EC50) was in the range of 0.01 to 10 µM.

For the compound `Cc1ccc2c(CC(=O)Nc3nccs3)coc2c1` [Example 42, 2-(6-Methylbenzofuran-3-yl)-N-thiazol-2-yl-acetamide], the concentration giving a half-maximal response (EC50) fell in the range of 0.01 to 10 µM.

Consider `COc1ccc2c(CC(=O)Nc3ncc(C)s3)coc2c1` [Example 43, 2-(6-Methoxybenzofuran-3-yl)-N-(5-methylthiazol-2-yl)acetamide], for which the concentration giving a half-maximal response (EC50) fell in the range of 0.01 to 10 µM.

As to `O=C(CCc1coc2ccccc12)Nc1ncc(C(F)(F)F)s1` [Example 44, 3-(Benzofuran-3-yl)-N-[5-(trifluoromethyl)thiazol-2-yl]propanamide], the EC50 is 0.01 to 10 µM.

Consider `Cc1cnc(NC(=O)Cc2coc3cc(C)c(C)cc23)s1` [Example 45, 2-(5,6-Dimethylbenzofuran-3-yl)-N-(5-methylthiazol-2-yl)acetamide], for which the EC50 fell in the range of 0.01 to 10 µM.

For `N#Cc1cnc(NC(=O)Cc2coc3cc(Cl)ccc23)s1` [Example 46, 2-(6-Chlorobenzofuran-3-yl)-N-(5-cyanothiazol-2-yl)acetamide], the EC50 lay in the range of 0.01 to 10 µM.

`COC(=O)c1cnc(NC(=O)Cc2coc3c(C)c(C)ccc23)s1` [Example 47, Methyl 2-[[2-(6,7-dimethylbenzofuran-3-yl)acetyl]amino]thiazole-5-carboxylate]: the concentration giving a half-maximal response (EC50) was in the range of 0.01 to 10 µM.

As for `Cc1ccc2c(CC(=O)Nc3ncc(C)s3)coc2c1` [Example 48, 2-(6-Methylbenzofuran-3-yl)-N-(5-methylthiazol-2-yl)acetamide], the concentration for a half-maximal effect (EC50) was 0.01 to 10 µM.

On to `O=C(Cc1coc2c(Cl)c(Cl)ccc12)Nc1ncc(C(F)(F)F)[nH]1` [Example 49, 2-(6,7-Dichlorobenzofuran-3-yl)-N-[5-(trifluoromethyl)-1H-imidazol-2-yl]acetamide], for which the 50% effective concentration (EC50) lay in the range of 0.01 to 10 µM.

Take `COc1ccc(-c2csc(NC(=O)Cc3coc4cc(C)ccc34)n2)cc1OC` [Example 50, N-[4-(3,4-Dimethoxyphenyl)thiazol-2-yl]-2-(6-methylbenzofuran-3-yl)acetamide]: the EC50 is 0.01 to 10 µM.

With `COc1ccc2c(CC(=O)Nc3nc(-c4ccc(CCC(C)NC(C)=O)cc4)cs3)coc2c1` (stereo not shown) [Example 51, N-[4-[4-(3-Acetamidobutyl)phenyl]thiazol-2-yl]-2-(6-methoxybenzofuran-3-yl)acetamide], the concentration giving a half-maximal response (EC50) lay in the range of 0.01 to 10 µM.

For the compound `CCc1ccc2c(CC(=O)Nc3nc(-c4ccc(NC(C)=O)cc4)cs3)coc2c1` [Example 52, N-[4-(4-Acetamidophenyl)thiazol-2-yl]-2-(6-ethylbenzofuran-3-yl)acetamide], the EC50 lay in the range of 0.01 to 10 µM.

On to `O=C(Cc1coc2c(Cl)cccc12)Nc1ncc(C(F)(F)F)s1` [Example 53, 2-(7-Chlorobenzofuran-3-yl)-N-[5-(trifluoromethyl)thiazol-2-yl]acetamide], for which the EC50 is 0.01 to 10 µM.

For the compound `COc1ccc2c(CC(=O)Nc3nc4c(s3)CCC4)coc2c1` [Example 54, N-(5,6-Dihydro-4H-cyclopenta[d]thiazol-2-yl)-2-(6-methoxybenzofuran-3-yl)acetamide], the half-maximal effective concentration (EC50) was 0.01 to 10 µM.

As a reminder, the EC50 is the concentration needed to bring the measured effect to its halfway point.
